Results on four compounds are retold here after ChEMBL document CHEMBL1649432, “Chromosomal integration of the extended-spectrum beta-lactamase gene blaCTX-M-15 in Salmonella enterica serotype Concord isolates from internationally adopted children” (2009).

Values after ≈ are worked out from the molar mass of the structure shown. Bounds are passed on as bounds.

Format in all cases: functional, Salmonella enterica subsp. enterica serovar Concord
Assay [1] in a line: Antimicrobial activity against Salmonella enterica serotype concord expressing extended-spectrum beta-lactamase CTX-M-15 by disc diffusion method. (Agar diffusion results depend on both activity and mobility in agar.)
Assay [2] is described as follows: Antimicrobial activity against Salmonella enterica serotype concord expressing extended-spectrum beta-lactamase SHV-12 by disc diffusion method.
Assay [3] is described as follows: Antimicrobial activity against Salmonella enterica serotype concord expressing extended-spectrum beta-lactamase SHV-12 by Etest.
Assay [4] can be described thus: Antimicrobial activity against Salmonella enterica serotype concord expressing extended-spectrum beta-lactamase CTX-M-15 by Etest.

One may read the MIC as the least concentration at which growth counts as inhibited. Low values mean greater potency, high ones weaker potency. On to `CO/N=C(\C(=O)N[C@@H]1C(=O)N2C(C(=O)[O-])=C(C[N+]3(C)CCCC3)CS[C@H]12)c1csc(N)n1` [CEFEPIME], for which the MIC in assay [1] (Salmonella enterica) is > 256 mg/L; in assay [2] it was 8 mg/L (≈ 16.6 µM).

For `CC(C)(O/N=C(\C(=O)N[C@@H]1C(=O)N2C(C(=O)[O-])=C(C[n+]3ccccc3)CS[C@H]12)c1csc(N)n1)C(=O)O` [CEFTAZIDIME], the MIC in assay [3] and in assay [4] was > 256 mg/L throughout.

With `CO/N=C(\C(=O)N[C@@H]1C(=O)N2C(C(=O)O)=C(CSc3nc(=O)c(O)nn3C)CS[C@H]12)c1csc(N)n1` [CEFTRIAXONE], the MIC in assay [3] is 64 mg/L (≈ 115 µM); in assay [4], > 256 mg/L.

Compound `O=C(O)c1cn(C2CC2)c2cc(N3CCNCC3)c(F)cc2c1=O` [CIPROFLOXACIN] yielded an Activity in assay [1] of 0.25 µg/mL.
